Where two headings read alike, the source gives them in different places.
Columns and labels:
[1] = tested on: NAD(P)H oxidase; experiment: Non-mitochondrial ROS/H2O2 production by NAD(P)H oxidase (Amplex Red); format: biochemical; conditions: no mitochondria; for effect on ROS measurement with NAD(P)H oxidase: 10 to 100 μM; for averaged percentage of ROS production across all concentrations tested: NAD(P)H oxidase, FIG. 22A
Experimental: (§1) Rates of ROS/H2O2 production from heart mitochondria were assessed through the oxidation of the colorless, non-fluorescent indicator Amplex Red in the presence of exogenous horseradish peroxidase (HRP, EC 1.11.1.7, Sigma). H2O2 reacts with Amplex Red in a 1:1 stoichiometry, yielding the fluorescent compound resorufin (excitation: 560 nm; emission: 585 nm) which is stable once formed. Fluorescence was measured continuously with a spectro-fluorometer equipped with temperature control and stirring (SAFAS Xenius, Monaco). Isolated mitochondria (0.1 mg/mL) were incubated in the same experimental buffer than previously, supplemented with 15 μM Amplex Red and 10 μg/mL HRP. Glutamate (5 mM)/malate (2.5 mM) together with succinate (5 mM) were used as complex I and complex II substrates, respectively. Experiments were conducted under non-phosphorylating conditions in the presence of 15 μM atractyloside, i.e., under state IV conditions where […]. Afterwards, rotenone (1.5 μM), antimycin A (2 μM), and myxothiazol (0.2 μM) were sequentially added to inhibit the redox centers within the electron transfer chain (FIG. 2), namely sites IQ, IF (with rotenone), IIIQi (with antimycin A) and IIIQO (with myxothiazol). Assay was finally calibrated with known amounts of H2O2 (steps of 300 nM), in the presence of all relevant compounds, including AOL. The control test of the absence of effect of AOL on the Amplex Red assay itself and NAD(P)H oxidase ROS/H2O2 production was carried out in the absence of cardiac mitochondria and the presence of NAD(P)H oxidase (EC 1.6.3.3, 5 mU/mL, Sigma) and NADH (100 μM) solutions.
The specificity of AOL was further tested in vitro using the peroxidase-Amplex Red system utilized for the measurement of ROS/H2O2 by mitochondria, which in fact measures the appearance of H2O2 by the oxidation of Amplex Red to the fluorescent resorufin (see FIG. 4). In the absence of mitochondria and by adding instead a H2O2-producing system to the measuring system, it was possible to test the effect of AOL on this system. This has been carried out by using commercial NAD(P)H oxidase which produces H2O2 in the presence of added NAD(P)H and measuring the reduction of Amplex Red to resorufin (FIG. 4).
(§2) Isolated mitochondria (0.1 mg/mL) were incubated in the same experimental buffer than previously, supplemented with 15 μM Amplex Red and 10 μg/mL HRP. Glutamate (5 mM)/malate (2.5 mM) together with succinate (5 mM) were used as complex I and complex II substrates, respectively. Experiments were conducted under non-phosphorylating conditions in the presence of 15 μM atractyloside. Afterwards, rotenone (1.5 μM), antimycin A (2 μM), and myxothiazol (0.2 μM) were sequentially added to inhibit the redox centers within the electron transfer chain (see FIG. 2), namely sites IQ, IF (with rotenone), IIIQi (with antimycin A) and IIIQO (with myxothiazol). Assay was finally calibrated with known amounts of H2O2 (steps of 300 nM), in the presence of all relevant compounds, including AOX. The control test of the absence of effect of AOL, AOX and Oltipraz on the Amplex Red assay itself and NAD(P)H oxidase […] production was carried out in the absence of cardiac mitochondria and the presence of NAD(P)H oxidase (EC 1.6.3.3, 5 mU/mL, Sigma) and NADH (100 μM) solutions.
The mechanism of action of AOX was further tested in vitro using the peroxidase-Amplex Red system utilized for the measurement of ROS/H2O2 by mitochondria, which in fact measures the appearance of H2O2 by the oxidation of Amplex Red to the fluorescent resorufin (FIG. 22). In the absence of mitochondria and by adding instead a H2O2-producing system to the assay, it was possible to test the effect of AOX on this non-mitochondrial superoxide/H2O2 production. This has been carried out by using commercial NAD(P)H oxidase which produces H2O2 in the presence of added NAD(P)H and measuring the reduction of Amplex Red to resorufin. […]

[2] = tested on: intrapulmonary arteries; experiment: Isometric contraction of intrapulmonary arteries induced by serotonin or endothelin
Experimental: Intrapulmonary arteries of the first order (IPA1) were divided into short tubular segments with an external diameter of 1.5-2 mm and used for isometric contraction measurement. Arterial rings were mounted in isolated organ bath systems, containing Krebs solution (containing 118.4 mM NaCl, 4.7 mM KCl, 1.2 mM MgSO4, 25 mM NaHCO3, 1.2 mM KH2PO4, 2.5 mM CaCl2) and 11.1 mM D-glucose, pH 7.4 adjusted with NaOH) at 37° C. and bubbled continuously with […]. An initial load of 0.8 to 1 g was applied to arterial rings. Tissues were allowed to equilibrate for 1 hour in Kreb's solution and washed out every 15 minutes. A high KCl solution (80 mM) was applied in order to obtain a reference contraction used to normalize subsequent contractile responses.
Contractile responses to different agonists were then tested by constructing a cumulative concentration-response curve (CCRC) to serotonin (5HT, 10^−4 to 10^−[…]) or endothelin (ET-1, 10^−7 to 10^−10 M). When indicated, AOL or AOX were preincubated during 30 minutes, and then CCRC to agonist was performed in the presence of the drug. High potassium solutions were obtained by substituting an equimolar amount of KCl for NaCl from Kreb's solution. Endothelial function was tested on each ring by examining the relaxation induced by 10 μM carbamylcholine on 0.3 μM Phe-induced preconstricted pulmonary arterial rings. Passive and active mechanical properties were assessed using transducer systems, coupled to IOX software (EMKA Technologies, Paris, France) in order to facilitate data acquisition and analysis.

[3] = biological target: site IQ of complex I (Rattus norvegicus, UniProt A6K8N6+P03889+Q641Y2); experiment: Mitochondrial ROS/H2O2 production (Amplex Red/HRP), glutamate+malate+succinate with ATR, no inhibitor; format: biochemical
site IQ of complex I, sequence (A6K8N6 entry or part of it): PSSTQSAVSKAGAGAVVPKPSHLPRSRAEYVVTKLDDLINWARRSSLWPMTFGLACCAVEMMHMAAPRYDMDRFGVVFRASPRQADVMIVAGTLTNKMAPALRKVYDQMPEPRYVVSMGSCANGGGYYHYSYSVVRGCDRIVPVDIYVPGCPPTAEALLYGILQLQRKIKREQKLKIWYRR
site IQ of complex I, sequence (P03889 whole entry): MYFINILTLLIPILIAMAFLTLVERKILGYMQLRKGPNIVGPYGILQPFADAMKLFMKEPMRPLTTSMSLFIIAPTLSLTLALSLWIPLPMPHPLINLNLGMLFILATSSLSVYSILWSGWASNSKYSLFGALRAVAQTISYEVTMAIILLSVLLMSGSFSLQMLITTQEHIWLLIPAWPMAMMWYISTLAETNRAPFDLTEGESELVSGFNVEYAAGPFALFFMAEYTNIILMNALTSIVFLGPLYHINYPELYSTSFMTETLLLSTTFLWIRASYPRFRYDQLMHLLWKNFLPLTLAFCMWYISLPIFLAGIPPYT
site IQ of complex I, sequence (Q641Y2 34-463): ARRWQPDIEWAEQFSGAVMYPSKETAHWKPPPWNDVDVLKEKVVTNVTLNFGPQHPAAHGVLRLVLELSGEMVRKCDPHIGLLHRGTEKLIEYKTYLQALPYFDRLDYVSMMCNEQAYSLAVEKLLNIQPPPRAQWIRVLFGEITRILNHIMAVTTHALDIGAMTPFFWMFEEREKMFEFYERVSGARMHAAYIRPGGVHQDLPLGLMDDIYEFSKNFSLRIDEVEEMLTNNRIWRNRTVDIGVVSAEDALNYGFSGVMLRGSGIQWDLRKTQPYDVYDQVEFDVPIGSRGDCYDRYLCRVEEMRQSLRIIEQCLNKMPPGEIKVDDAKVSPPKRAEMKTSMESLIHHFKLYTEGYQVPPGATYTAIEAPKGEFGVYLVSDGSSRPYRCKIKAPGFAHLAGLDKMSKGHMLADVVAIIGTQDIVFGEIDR
Experimental: as §1
Rates of ROS/H2O2 production from heart mitochondria were assessed through the oxidation of the colorless, non-fluorescent indicator Amplex Red in the presence of exogenous horseradish peroxidase (HRP, EC 1.11.1.7, Sigma). H2O2 reacts with Amplex Red in a 1:1 stoichiometry, yielding the fluorescent compound resorufin (excitation: 560 nm; emission: 585 nm) which is stable once formed. Fluorescence was measured continuously with a spectro-fluorometer equipped with temperature control and stirring (SAFAS Xenius, Monaco).
as §2

| Compound | effect on ROS measurement with NAD(P)H oxidase [1] | averaged percentage of ROS production across all concentrations tested [1] | inhibition of fluorescence in NAD(P)H oxidase/Amplex Red system ([1]; results not shown) | endothelin-induced contractions ([2]; AOL preincubated 30 minutes) | serotonin-induced contractions ([2]; AOL preincubated 30 minutes) | decrease of ROS/H2O2 production measured in the absence of inhibitor ([3]; AOL 5 to 80 μM, glutamate, malate, succinate, only ATR present) | response of serotonin- and endothelin-induced contractions compared with AOL ([2]; AOX at 10 μM) | serotonin-induced contractions ([2]; higher concentrations of AOX (above 10 μM)) | lowest concentration showing an inhibitory effect on ROS production by site IQ ([3]; AOX 2.5 to 20 μM, glutamate, malate, succinate, ATR) | IC50 ([3]; AOX 2.5 to 20 μM, glutamate, malate, succinate, ATR, read-out: estimated IC50 on ROS production by site IQ) | Hill coefficient ([3]; fit of FIG. 21) | Maximum (fit parameter) ([3]; fit of FIG. 21) | Minimum (fit parameter) ([3]; fit of FIG. 21) | IC50 ([3]; fit of FIG. 21, read-out: IC50 (fit parameter)) |
| --- | --- | --- | --- | --- | --- | --- | --- | --- | --- | --- | --- | --- | --- | --- |
| COc1ccc(-c2cc(=S)ss2)cc1 [AOL, 5-(4-methoxyphenyl)-3H-1,2-dithiole-3-thione] | no global effect | 99.2% | did not observe any inhibition | no effect on endothelin-induced contractions | could relax contractions induced with up to 5·10^−5 M of serotonin | approximately 80% |  |  |  |  |  |  |  |  |
| Oc1ccc(-c2cc(=S)ss2)cc1 [AOX, 5-(4-hydroxyphenyl)-3H-1,2-dithiole-3-thione] | no global effect | 109.9% |  |  |  |  | same pattern of response | contractions induced with 10^−4 M of serotonin could be relaxed | 2.5 µM | ~9.5 µM | 2.616±0.5706 | 554.045±19.73 | −72.5272±68.64 | 9.47 ± 1.02 µM |
